Entries after “also recorded” stand apart in the source; their conditions may differ.
Key:
[1] = 14-day preliminary toxicity, daily oral gavage; type: in vivo, C57BL/6 mice
Protocol: Data represent mean value ± standard deviation. b Plasma pharmacokinetic parameters of PO and IV. c, d C57BL/6 mice (n = 5) were treated with the indicated daily oral gavage dosing of PK68 for successive 14 days. Body weight (c) and hematoxylin-eosin (H&E) staining (d) of mice were analyzed. Control mice received an equal amount of vehicle. Magnification: ×40. Data represent mean value ± standard deviation TEXT PRINTED IN THE PICTURE: (b) no label printed: Tmax (hr): 0.5 (PO (Gavage)); Cmax (ng/mL): 2423 (PO (Gavage)); AUC0-24 (ng/mL*hr): 4821 (PO (Gavage)); AUC0-24 (ng/mL*hr): 1588 (IV (Bolus)); AUCINF (ng/mL*hr): 4897 (PO (Gavage)); AUCINF (ng/mL*hr): 1590 (IV (Bolus)); t1/2 (hr): 1.3 (PO (Gavage)); t1/2 (hr): 1.0 (IV (Bolus)); MRT (hr): 1.8 (PO (Gavage)); MRT (hr): 0.8 (IV (Bolus)); CL (mL/hr/kg): 1258 (IV (Bolus)); CL (mL/min/kg): 21 (IV (Bolus)); Vss (mL/kg): 1009 (IV (Bolus)); Vss (L/kg): 1.0 (IV (Bolus)); F(%): 61 (PO (Gavage)) DOUBTS OF THE COPYIST ABOUT THIS PICTURE: Panel b prints no substance label with the PK table. The name PK68 is printed only in panels c and d, so the label is left empty.
Judging by the PK time curve, the observed plasma levels of PK68 were above its EC50 over a period of 8 h. […] These doses were meant to determine the preliminary toxicity effects of PK68 (Fig. 6c). […] We further performed histology of various tissues from mice that had received 14-day treatment of PK68.

[2] = test system: RFP-LL/2 cells; test: Lung metastasis model of RFP-labeled Lewis lung carcinoma cells; type: in vivo, C57BL/6 mice; conditions: 5 mg/kg ip pre-treatment; 14 days
Protocol: (§1) Studies have shown that RIPK1 kinase activity is involved in the promotion of tumor metastasis through death receptor 6-dependent necroptosis of endothelial cells[22] or VEGF-dependent activation of vascular permeability. We thus evaluated the therapeutic effect of PK68 on lung metastasis of mouse melanoma B16-F10 cells in vivo. […] After 2 weeks, the metastasis of B16-F10 cells was measured by histological analysis and assessed as the number of metastasis nodules in the lung. […] Two weeks after intravenous injection of RFP-LL/2 cells, RFP^+ LL/2 cells were isolated from the tumor tissues by flow cytometer sorting and no signal of phosphorylated RIPK1 was detected in these tumors cells (Supplementary Fig. 22). […] Further, we evaluated the effect of PK68 on the tumor cell transmigration across the cultured endothelium. […]
C57BL/6 mice bearing B16-F10 cells (a, b) or RFP-labeled LL/2 cells (c, d) were treated with vehicle, PK68 (5 mg/kg) or Nec-1s (5 mg/kg) as described in the Materials and methods. a, b Tumor metastasis of B16-F10 was measured by the numbers of metastasis nodules and histological analysis. […] The numbers of metastasis nodules on lung surfaces (b) in the metastasis model of B16-F10 were counted with the microscope. c, d Tumor metastasis of RFP-labeled LL/2 was calculated by RFP […] intensity. […]

[3] = test system: RFP-LL/2 cells; test: Early metastasis/extravasation of tumor cells, 6 h after injection; type: in vivo, C57BL/6 mice; conditions: 5 mg/kg ip
Protocol: as §1
Melanoma B16-F10 cells (0.5 × 10^6 cells) or RFP-labeled lung carcinoma LL/2 cells (0.3 × 10^6 cells) were injected into C57BL/6 mice in a volume of 200 μl PBS via the tail intravenous injection. […] The lung metastasis of B16-F10 cells in mice was determined by accounting the number of metastasis nodules with a dissecting microscope (Leica) and histologic analysis. The lung metastasis of LL/2 cells in mice was analyzed by measuring RFP fluorescence intensities with the PerkinElmer IVIS Lumina II. […]

[4] = test system: RFP-LL/2 cells through CD31+ endothelial cell monolayer; test: Transendothelial migration assay; type: cell-based, mouse; conditions: 2 h pretreatment, 20 h
Protocol: as §1, with “22). Six hours after intravenous injection of RFP-LL/2 cells into C57BL/6 mice, the RFP-LL/2 cells have extravasated through blood vessels into the lung (Supplementary Fig. 23).” for “22).”
Primary CD31^+ endothelial cells isolated from lungs by using CD31 beads (Miltenyi Biotec) were used for the transendothelial migration assay as previously described. […] Then fluorescence picture of transmigrated RFP-LL/2 cells were taken at ×40 magnification under the microscope (Nikon), and the intensity of fluorescence was analyzed by Image J software. […]

[5] = 5 and 25 mg/kg, daily oral gavage, 14 days

With CC(=O)Nc1nc2ccc(-c3cnc(C)c(NC(=O)OC4CCCCC4)c3)cc2s1 [PK68, cyclohexyl (5-(2-acetamidobenzo[d]thiazol-6-yl)-2-methylpyridin-3-yl)carbamate] the “body weight and behavior” value [1, 5] was “normal body weight and behavior”, the tolerability [1, 5] was “well tolerated” and the toxicity in mice ([1]; 14-day course, 25 mg/kg) was “no obvious toxicity; also recorded: no detectable toxicity”. The “histology of lung, liver, and heart” value ([1]; 14-day treatment) was “normal morphology”, the “lung metastasis of RFP-LL/2 cells” value [2] was “markedly decreased” and the “number of RFP-LL/2 cells in the lung 6 h after injection” value [3] was “decreased number”. For the same molecule, the “transmigration of RFP-LL/2 cells through the endothelial cell monolayer” value [4] was “attenuated”.
